Here are results for 93 molecules from PubChem BioAssay AID1902 (Broad Institute, 2009).

Each structure is given as a SMILES string. pEC50: −log10 of the molar value. The source made the active and inactive calls.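 The calls were made as follows: active = EC50 no more than a set limit of log units above the highest dose; inactive = the rest.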

In the assay the target is S. pyogenes SKKanGAS, kanamycin survival, BacTiterGlo, 6 h. In words: S. pyogenes SKKanGAS kanamycin growth inhibitors – SKKanGAS strain, luminescence, dose confirmation, streptokinase promoter inhibitor project, dose response (AID 1902).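 Also: lower survival reflects blocked streptokinase promoter driving kanamycin resistance gene.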
The term pEC50 denotes −log10 of the EC50, conventionally taken in molar units. On to `COc1ccc(-c2cc3nc[nH]c(=O)c3s2)cc1`, for which the pEC50 was 5.08. On the same count and under the same terms, for `COc1cc([N+](=O)[O-])cc(/C=N\NC(=O)C2COc3ccccc3O2)c1O` (stereo not drawn) the value was 5.44; for `COCCCn1c(=O)/c(=C\c2ccccc2OC(C)C)s/c1=C(/C#N)C(=O)Nc1ccc(C(=O)O)cc1`, 5.69. Still for that read-out and setting: for `CCn1cc(Cl)c(C(=O)N2N=C(c3ccc4ccccc4c3)CC2c2ccccc2O)n1` (stereo not drawn) the value was 5.21; for `Cc1ccc2[nH]c(O)c(N=NC(=O)c3ccc(NS(=O)(=O)c4cccs4)cc3)c2c1`, 5.90; for `CCCCCC/C(=N/O)c1ccccn1`, 4.81.

Regarding `C=C(C)C1Cc2c(C)nn(-c3nc(C)cc(C)n3)c2C1` (stereo not drawn), the pEC50 was 6.16. On the same count and under the same terms, for `COc1ccc(O)c(C(=O)c2cc(SCC(=O)O)c3nc4sc5c(c4c(=O)n3c2)CCCC5)c1` the value was 5.39; for `COc1ccc(NC(=O)c2cccc(-c3ccc(O)cc3)c2)cn1`, 4.89.

Regarding `O=c1c2c(nc3c(-c4ccc(Cl)cc4)c[nH]n13)CCC2`, the pEC50 is 5.47. The same measure, in the same setting: next, `COc1ccc(NC(C)C(=O)N/N=C/c2c(O)ccc3ccccc23)cc1` (stereo not drawn): 5.94; `COc1ccc(S(=O)(=O)Nc2cc3c4c(oc3c3ccccc23)CC(C)(C)CC4=O)cc1`: 5.20; `Cc1cc(C)c(OCC(=O)N2CCN(c3ncc(C(F)(F)F)cc3Cl)CC2)c(C)c1`: 5.16. Same read-out and setting: for `Cc1ccc2nc(N3C(=O)C(O)=C(C(=O)c4ccco4)C3c3cccs3)sc2c1` (stereo not drawn) the value was 5.68; for `CCCCn1c(-c2ccco2)nc2oc3ccccc3c(=O)c2c1=O`, 4.82. In the case of `NC(=O)N=Nc1c2[nH]c3ccccc3nc-2c2ccccc12`, the pEC50 was 5.27. As to `Cc1cc(S(=O)(=O)NCCC2=CCCCC2)ccc1Br`, the pEC50 is 5.27.

As for `COc1ccc(/C=C2/Sc3ccc(C(=O)N4CCc5ccccc5C4)cc3NC2=O)cc1`, the pEC50 was 5.78.

Take `O=c1c2ccccc2[se]n1-c1ccccc1`: the pEC50 was 5.82. Still for that read-out and setting: for `NS(=O)(=O)c1ccc(-c2ccc(/C=C3\SC(=S)N(C4CCS(=O)(=O)C4)C3=O)o2)cc1` (stereo not drawn) the value was 5.31. The same measure, in the same setting: for `Cc1ccc(C)c(NC(=O)CSc2nc3nc(-c4cccs4)cc(C(F)(F)F)c3c(=O)[nH]2)c1` the value was 5.50; for `c1ccc(-c2nc(-c3nccc4ccccc34)oc2-c2ccccc2)cc1`, 5.45. On the same count and under the same terms, for `CC(C)(C)[C@H]1CCC(=O)N([C@H](CSc2ccccc2)Cc2ccccc2)CC1` the value was 5.45. Turning to `O=C(Cc1ccccc1)NNC(=S)NC(=O)c1cccs1`, the pEC50 was 5.42.

Consider `CCSc1n[nH]c2nc3c(c(=O)n12)C1(CCCC1)Cc1ccccc1-3`, for which the pEC50 is 5.43.

`COc1ccc(NC(=S)NNc2ccc([N+](=O)[O-])cc2S(=O)(=O)Nc2ccc(C)cc2C)cc1`: the pEC50 was 5.08. Same read-out and setting: for `CCCCn1c(O)c(C(CC)=Nc2ccc3c(c2)CCC3)c(=O)[nH]c1=O` the value was 5.22; for `Cc1ccc(C(=O)NNC(=S)NC(=O)c2ccc(Cl)cc2)cc1`, 7.13. Still for that read-out and setting: for `Clc1ccc2c(N/N=C/c3cccc(Br)c3)ccnc2c1` the value was 5.54; for `c1ccc(Nc2nc(N3CCCCC3)nc(N3CCCCC3)n2)cc1`, 5.08. `CC1(C)S[C@@H]2[C@H](NC(=O)Cc3ccccc3)C(=O)N2[C@H]1C(=O)O`: the pEC50 is > 7.22. Same read-out and setting: for `CCCc1cc(NCc2ccccn2)n2nc(C)c(-c3ccccc3)c2n1` the value was 5.19; for `O=S(=O)(N[C@H]1C[C@@H](NS(=O)(=O)OCC(Cl)(Cl)Cl)C2CCCCC21)OCC(Cl)(Cl)Cl` (stereo partly drawn), 5.73; for `O=[N+]([O-])c1ccc(O)c(/C=N/Nc2nc3ccccc3[nH]2)c1`, 6.23. The same measure, in the same setting: for `COc1ccc(O)c(-c2cc(-c3cccc(Br)c3)n[nH]2)c1` the value was 5.00. A word on the EC50: it is the concentration giving half of the maximal effect. Turning to `COc1ccccc1C(=O)Nc1nnc(SCC(=O)NCC2CCCO2)s1` (stereo not drawn), the EC50 is > 15 µM (inactive). In the case of `CCN(CC)c1ccc(-n2cc3c(=O)n(C)c(=O)n(C)c3c2)cc1`, the pEC50 was 5.47. The same measure, in the same setting: next, `Cc1cccc(/C=N/NC(=O)c2ccc3c(c2)OCCO3)c1O`: 5.36; `Cc1c(CCC(=O)O)c(=O)oc2cc3occ(-c4ccc(Cl)cc4)c3cc12`: 5.46; `COc1ccc(/C=N/Nc2cc(C)nc(-n3nc(C)cc3C)n2)c(OC)c1`: 5.10.

Regarding `CN1C(=O)/C(=C\c2ccccc2F)Sc2ccc(C(=O)NC3CCN(Cc4ccccc4)CC3)cc21`, the pEC50 was 5.21.

Take `Cc1nn(-c2ccccc2)c(C)c1/C=N/NC(=O)c1cc(-c2ccc(Br)s2)[nH]n1`: the pEC50 is 5.37.

With `COc1ccc2cc(C(=O)NCc3ccccc3)c(=Nc3ccc(C(=O)O)cc3)oc2c1`, the pEC50 is 5.42.

Regarding `O=C(N/N=C/c1c(O)n(Cc2ccccc2)c(=O)[nH]c1=O)c1ccccc1`, the pEC50 is 5.06. As for `CCCCNC(=O)c1ccc(NC(C)=O)c(Cl)c1`, the EC50 is > 15 µM (inactive). On to `CC[C@H]1OC(=O)[C@H](C)[C@@H](O[C@H]2C[C@@](C)(OC)[C@@H](O)[C@H](C)O2)[C@H](C)[C@@H](O[C@@H]2O[C@H](C)C[C@H](N(C)C)[C@H]2O)[C@](C)(O)C[C@@H](C)CN(C)[C@H](C)[C@@H](O)[C@]1(C)O`, for which the pEC50 is > 7.22. On the same count and under the same terms, for `CN(/N=C/c1cc(Br)cc(Br)c1O)c1cccc(C(F)(F)F)n1` the value was 6.26; for `COc1ccc(-c2nc(-c3cccs3)c(-c3cccs3)[nH]2)cc1OC`, 5.36. As for `CC(C)Oc1ccc(C(=O)Nc2nnc(C3=COCCO3)o2)cc1`, the pEC50 was 6.10. On to `O=[N+]([O-])c1ccc(O)c(/C=N/Nc2ncnc3c2cnn3-c2ccccc2)c1`, for which the pEC50 is 6.13. As for `Cn1c(=O)c(C(=O)NNC(=O)c2ccccc2F)c(O)c2ccccc21`, the pEC50 is 5.37.

Consider `CC(/C=C/C=C/c1ccccc1)=N/NC(=O)c1ccc2c(c1)OCCO2`, for which the EC50 was > 15 µM (inactive). The same measure, in the same setting: next, `CCN(CC(=O)NCC1CCCO1)S(=O)(=O)c1ccc(Cl)cc1` (stereo not drawn): > 15 µM (inactive). For the molecule `O=[N+]([O-])c1cccc(/C=C/c2ccc3cccc(O)c3n2)c1`, the pEC50 was 5.65. Same read-out and setting: for `Oc1ccc(CN2CCN(c3ccccc3)CC2)c2cccnc12` the value was 5.42; for `COC12C(COC(N)=O)C3=C(C(=O)C(C)=C(N)C3=O)N1CC1C2N1C` (stereo not drawn), > 7.22.

Regarding `Cc1ccc(C23CC4CC(CC(C(=O)N5CCN(C)CC5)(C4)C2)C3)cc1`, the EC50 is > 15 µM (inactive). `NNC(=O)CSc1nc(-c2ccccc2)nc2c1CCCC2`: the EC50 was > 15 µM (inactive). On to `O=C(c1cc(-c2ccccc2)nc2ccccc12)N1CCN(c2ccccc2O)CC1`, for which the pEC50 was 5.16. In the case of `CNC[C@H](Cc1ccccc1)NC[C@@H](Cc1cccc2ccccc12)NCCc1ccc(C)cc1`, the pEC50 is 5.37. Consider `FC(F)(F)c1cccc(Nc2nc(N3CCCC3)nc(N3CCCC3)n2)c1`, for which the pEC50 is 5.65. As to `C/C(N)=C(/C#N)C(=O)CSc1nc2cc(Cl)ccc2c(=O)n1Cc1ccco1`, the pEC50 was 5.06. The same measure, in the same setting: for `Cc1[nH]n(-c2ccccc2)c(=O)c1N=Nc1ccccc1O` the value was 6.24; for `Cc1nn(C(C)C(=O)NC2C(=O)N3C(C(=O)O)=C(CSc4nnnn4C)CSC23)cc1Cl` (stereo not drawn), > 7.22; for `Cc1nc(-n2[nH]c3c(c2=O)CCCC3)[nH]c(=O)c1Cc1ccccc1`, 5.86. Same read-out and setting: for `CCc1ccc2[nH]c(O)c(N=Nc3nc(-c4ccccc4)cs3)c2c1` the value was 5.06. Still for that read-out and setting: for `O=C(Nc1ccc(OCC(F)(F)C(F)F)c(C(F)(F)F)c1)c1ccc(Cl)cc1` the value was 5.44. As for `Cc1ccc(C)c(/C=C/C(=O)c2ccccc(=O)c2O)c1`, the pEC50 is 5.72. Still for that read-out and setting: next, `Nc1nonc1-n1nnc(C(=O)N/N=C/c2cc(Br)ccc2O)c1CNc1ccccc1`: 6.40.

For `COc1cccc(COC(=O)c2sc3nc4n(c(=O)c3c2C)CCC4)c1OC`, the pEC50 was 5.32. Still for that read-out and setting: next, `CCCc1ccc(OCC(=O)NNC(=S)NC(=O)c2ccco2)cc1`: > 7.22; `CCc1ccc(C2C(C#N)=C(N)C(C#N)(C#N)C3=CCC(C(C)(C)C)CC32)cc1` (stereo not drawn): 5.29; `O=C(NC(=S)NNC(=O)[C@H]1C[C@@H]1c1ccccc1)c1cccc(F)c1`: 6.12. The same measure, in the same setting: next, `C/C(=N\NC(=O)c1cccc2ccccc12)c1ccccn1`: 5.49; `CN1CCN(C(c2ccc(C(F)(F)F)cc2)c2ccc3cccnc3c2O)CC1` (stereo not drawn): 5.52; `Cc1ccc(NC2=NCC(Cc3ccc(Br)cc3)S2)cc1` (stereo not drawn): 6.25. Same read-out and setting: next, `COc1cccc(Nc2c3c(nc4c(-c5ccccc5)c(C)nn24)CCC3)c1`: 5.74; `COc1ccc(/C=C/C(=O)NC(=S)NNC(=O)c2cnccn2)cc1`: 5.23. For the molecule `CN(CC1CCCO1)S(=O)(=O)c1ccc(C(=O)Nc2nnc(-c3ccccc3)o2)cc1` (stereo not drawn), the pEC50 was 5.58.

As for `c1ccc(-c2nc(C3CCCCC3)c3sccc3n2)cc1`, the pEC50 was 5.48. On the same count and under the same terms, for `CCC(=O)NC(=S)Nc1ccc(NC(=S)NC(=O)c2ccccc2)cc1` the value was 6.09; for `Cc1onc(-c2ccccc2)c1C(=O)NNC(=S)NC(=O)c1ccc(Br)cc1`, 6.76.

Take `COc1cccc(OC)c1C(=O)Nc1cc(C)nn1-c1nc2ccccc2[nH]1`: the pEC50 is 5.20. On the same count and under the same terms, next, `Cc1ccc(SCc2cc(=O)[nH]c(SCC(=O)Nc3cc(Cl)ccc3Cl)n2)cc1`: 5.17. With `CNC(=S)N1CCN(c2c(F)cc3c(=O)c(C(=O)O)cn(C4CC4)c3c2OC)CC1C` (stereo not drawn), the negative-log EC50 (pEC50) is 6.80. Take `COc1cc(NS(=O)(=O)c2ccc(C)cc2)c2ncccc2c1`: the pEC50 was 6.11. On the same count and under the same terms, next, `CC(C)(C)c1nc(NC(=O)Nc2ccccc2)sc1Br`: 5.20; `O=C(COc1ccc(Cl)cc1Cl)Nc1ccc(C(=O)Nc2ccccc2C(=O)O)cc1`: 5.64.

Regarding `CCC1C(=NO)C(CC)C(c2ccccc2)NC1c1ccccc1` (stereo not drawn), the pEC50 is 5.48. On the same count and under the same terms, next, `O=C(Nc1cccc(-c2csc(Nc3cccc(C(F)(F)F)c3)n2)c1)c1ccccc1`: 5.36; `O=c1c(O)c(-c2cccs2)oc2ccc(Cl)cc12`: 5.69; `CCCCCCCCCCCCCCCC(O)C(N)CO` (stereo not drawn): 5.66.

For the molecule `Oc1c(Cl)cc(Cl)cc1C(C#Cc1ccccc1)N1CCOCC1` (stereo not drawn), the pEC50 is 4.91.
